Results published in patent publication US11439618B2, “Compositions and methods for lowering triglycerides” (Amarin Pharmaceuticals Ireland Limited, priority 2009, dated 2022).

Tested on: subjects with Age-Associated Memory Impairment
Experiment: Safety and tolerability (adverse events), 6-week AAMI study
Assay type: in vivo, human
Description: All randomized subjects that received at least 1 dose of study medication were included in the Safety Population.
Safety evaluations were based on the safety population. Safety and tolerability were assessed in terms of AEs, vital signs, 12-lead ECG, clinical laboratory data, medical history, and study drug compliance. Safety and tolerability data were presented by treatment group.

For CC/C=C\C/C=C\C/C=C\C/C=C\C/C=C\CCCC(=O)OCC [Ethyl-EPA, all-cis eicosa-5,8,11,14,17-pentaenoic acid ethyl ester], which “Nausea Probably Related to the study drug” value (1 g) is on record?
The value was “One”.

And the “Nausea Possibly Related to the study drug” value (from here on “Nausea Possibly Related”) (1 g cohort)?
Its value is “two”.

And the “Nausea Possibly Related” value (2 g cohort)?
Its value is “one”.

What about the SAE reported (2 g treatment group) of the same compound?
The SAE reported was “One”.

And the “Subjects discontinued due to TEAEs” value (2 g treatment group)?
The value was 2 subjects.

And the “Serious adverse event (worsening epigastric chest pain), relation to study drug” value (2 g, one subject, 17 days after start, 9 days after last dose)?
The value was “unrelated to the study drug”.

What about the “Nausea Possibly Related” value (4 g cohort) of the same compound?
Its value is “two”.

And the “Diarrhea, relation to the study drug” value (4 g, one subject)?
The value was “diarrhea that was Probably Related to the study drug”.

What about the “Treatment emergent AEs (TEAEs) reported” value (ethyl-EPA treatment groups (1, 2, 4 g), placebo groups 34 events) of the same compound?
Its value is 105 events.

What about the “Deaths during the study” value (whole study) of the same compound?
Its value is “no deaths”.

And the “Severity and relatedness of most TEAEs” value (whole study)?
The value was “mild in severity and unrelated to study drug”.

What about the “TEAEs Definitely Related to the study drug” value (whole study) of the same compound?
The value was “No TEAEs were Definitely Related”.
